Results from patent US11786517B2, “Methods of treatment using a JAK inhibitor compound” (THERAVANCE BIOPHARMA R&D IP, LLC, priority 2017, dated 2023).

What was measured:
[1] = tested on: airway neutrophils; assay: Murine model of LPS/G-CSF/IL-6/IFNγ cocktail-induced airway neutrophilic inflammation; type: in vivo, Balb/C mice; conditions: mouse, 1.0 mg/mL 50 μL oropharyngeal aspiration, BALF at twenty-four hours
Description: Airway neutrophilia is a hallmark of a range of respiratory disease in humans. Compound 1 was tested in a model of neutrophilic airway inflammation using a LPS/G-CSF/IL-6/IFNγ cocktail to induce airway neutrophilia.
Seven- to nine-week old male Balb/C (wildtype) mice from Jackson Laboratory were used in the study. On the day of study, animals were lightly anesthetized with isoflurane and administered either vehicle or test compound (1.0 mg/mL, 50 μL total volume over several breaths) via oropharyngeal aspiration. Animals were placed in lateral recumbency post dose and monitored for full recovery from anesthesia before being returned to their home cage. One hour later, animals were once again briefly anesthetized and challenged with either vehicle or LPS; 0.01 mg/kg/G-CSF; 5 μg/IL-6; 5 μg/IFNγ; 5 μg (100 μL total volume) via oropharyngeal aspiration (OA). Twenty-four hours after the LPS/G-CSF/IL-6/IFNγ cocktail administration, bronchoalveolar lavage fluid (BALF) was collected and neutrophils were counted.

[2] = Ocular pharmacokinetics in rabbit eyes; type: in vivo, New Zealand white rabbits; conditions: intravitreal injection, listed as compound of the invention
Description: The objective of this assay was to determine the pharmacokinetics of the test compound in rabbit ocular tissues.
The compound of the invention, 5-ethyl-2-fluoro-4-(3-(5-(1-methylpiperidin-4-yl)-4,5,6,7-tetrahydro-1H-imidazo[4,5-c]pyridin-2-yl)-1H-indazol-6-yl)phenol (1) was dissolved in either 10% 2-hydroxypropyl-β-cyclodextrin to attain a target concentration of 4 mg/mL or in purified water to attain a target concentration of 1 mg/mL. Bilateral intravitreal injection (50 μL/eye) of the solution of test compound was administered to New Zealand white rabbits in two dose groups, 200 μg/eye and 50 μg/eye, respectively, for the cyclodextrin and water vehicle formulations, respectively. The test compound concentration was measured in ocular tissues: vitreous, aqueous, retina/choroid and iris-ciliary body at pre-determined time points post injection (30 min, 4 h, 1 d, 3 d, 7 d, 14 d). Two rabbits (four eyes) were dosed for each time point.
A suspension formulation was prepared by combining crystalline compound 1 of Example 1 with 0.5% hydroxypropyl methylcellulose (HPMC E5)+0.02% Tween 80 to attain a target concentration of 10 mg/mL. Bilateral intravitreal injection (50 μL/eye) of the suspension of test compound was administered to New Zealand white rabbits (500 μg/eye). The test compound concentration was measured in ocular tissues as in the […] at 30 min, 2 wks, 4 wks, 6 wks, and 8 wks post injection. […] The behavior is consistent with the solubility of compound 1 in the vehicle and the ocular pharmacokinetic behavior in the solution formulation. The drug concentration in plasma was measured and found to be at least 3 orders of magnitude lower than the concentration in vitreous tissue.

[3] = tested on: IL-27 induced CXCL10 secretion; assay: Inhibition of IL-27 induced CXCL10 in human 3D airway cultures; type: cell-based; conditions: 192 h, at 0.1 μM (first of two values so printed), 8 days, ±STDV
Description: EpiAirway tissue cultures were obtained from Mattek (AIR-100). Cultures were derived from asthmatic donors. In a cell culture insert, human derived tracheal/bronchial epithelial cells were grown and differentiated on a porous membrane support, allowing an air-liquid interface with warmed culture medium below the cells and a gaseous test atmosphere above. Tissues were cultured in maintenance media (Mattek, AIR-100-MM) in a 37° C., 5% CO2 humidified incubator. Four donors were tested. On Day 0, tissue cultures were treated with test compounds at 10 μM, 1 μM and/or 0.1 μM. Compounds were diluted in dimethyl sulfoxide (DMSO, Sigma) to a final concentration of 0.1%. DMSO at 0.1% was used as a vehicle control. Test compounds were incubated with cultures for 1 hour at 37° C., 5% CO2, followed by the addition of pre-warmed media containing IFNγ (R&D Systems) or IL-27 (R&D Systems) at a final concentration at 100 ng/ml. Tissue cultures were maintained for 8 days. Media was replaced every 2 days with fresh media containing compounds and IFNγ or IL-27. On Day 8, tissue cultures and supernatants were collected for analysis. […] Data is expressed as % Inhibition+/−standard deviation (±STDV). Percent inhibition was determined by compound inhibitory potency against IFNγ or IL-27 induced CXCL10 or CXCL9 secretion compared to vehicle treated cells. […]

[4] = tested on: IL-6 induced pSTAT3 in rat retina/choroid; assay: Pharmacodynamic assay: inhibition of IL6-induced pSTAT3 in rats; type: in vivo, Female Lewis rats; conditions: 3 day pre-treatment
Description: The ability of a single intravitreal administration of test compound to inhibit IL-6 induced pSTAT3 was measured in rat retina/choroid homogenates.
Suspension formulations were prepared by combining crystalline compound 1 of Example 1 with 0.5% hydroxypropyl methylcellulose (HPMC E5 LV), 0.02% Tween 80, and 0.9% sodium chloride in purified water to attain target concentrations of 3 mg/mL and 10 mg/mL.
Female Lewis rats were intravitreally (IVT) dosed (5 μL per eye) with the suspension formulations or with the drug vehicle. Three days later, IL-6 (Peprotech; 0.1 mg/mL; 5 μL per eye) or vehicle was intravitreally administered to induce pSTAT3. Ocular tissues were dissected one hour after the second IVT injection with IL-6. The retina/choroid tissues were homogenized and pSTAT3 levels were measured using an ELISA (Cell Signaling Technology). The percent inhibition of IL-6-induced pSTAT3 was calculated in comparison to the vehicle/vehicle and vehicle/IL-6 groups. Inhibition of greater than 100% reflects a reduction of pSTAT3 levels to below those observed in the vehicle/vehicle group.

drug concentration in plasma lower than concentration in vitreous tissue [2]: at least three orders of magnitude lower
SMILES: CCc1cc(O)c(F)cc1-c1ccc2c(-c3nc4c([nH]3)CCN(C3CCN(C)CC3)C4)n[nH]c2c1 [compound 1, 5-ethyl-2-fluoro-4-(3-(5-(1-methylpiperidin-4-yl)-4,5,6,7-tetrahydro-1H-imidazo[4,5-c]pyridin-2-yl)-1H-indazol-6-yl)phenol]
reduction of the airway neutrophils compared to vehicle treated mice [1]: 84%
inhibition at 0.1 µM [3]: 98%
inhibition of IL-6-induced pSTAT3 ([4]; 15 μg intravitreal suspension): 33%
inhibition of IL-6-induced pSTAT3 ([4]; 50 μg intravitreal suspension): 109%
